{"source": "patent US12396956B2", "about": "“Modified release compositions of a gamma-hydroxybutyric acid derivative” (XWPHARMA LTD., priority 2020, dated 2025)", "experiment": "Oral bioavailability of γ-hydroxybutyric acid from the prodrug", "settings": "in a patient, oral administration"}
{"smiles": "CC(C)[C@H](N)C(=O)OCCCC(=O)O", "note": "[compound (1), 4-((L-Valyl)oxy)butanoic acid]", "values": [{"measurement": "oral bioavailability of γ-hydroxybutyric acid", "result": "greater than 60 % F"}]}
